Measurements taken from patent publication US7358359B2, “Antibacterial agents” (University of Washington, priority 2003, dated 2008).
In brackets after ≈: the same amount, converted by molar mass. Like-named read-outs stand apart in the source and are kept apart here.

What was measured:
E. coli 25922 = experiment: MIC broth microdilution, standard panel: E. coli 25922; assay type: cell-based; details: Escherichia coli, standard panel of organisms
Experimental: (§1) Bacterial isolates were cultivated from −70° C. frozen stocks by two consecutive overnight passages at 35° C. in ambient air on 5% blood agar (Remel, Lenexa, Kans.). Clinical isolates tested were from a collection composed of isolates collected during clinical trials and recent clinical isolates obtained from various geographically diverse hospitals in the US. Quality control and primary panel strains were from the American Type Culture Collection (ATCC; Rockville, Md.), with the exception of P. aeruginosa PAO200, a strain with a deletion of the mexABoprM genes that was received from Dr. H. Schweizer. […] Strain Z61 (ATCC 35151) is also hypersusceptible to antibacterials. It is thought that the hypersusceptibility of this strain is the result of increased permeability of its outer membrane (Angus B L et al, Antimicrobial Agents and Chemotherapy 1982 21,299-309: Outer membrane permeability in Pseudomonas aeruginosa: Comparison of a wild-type with an antibacterial-supersusceptible mutant).
(§2) Minimum Inhibitory Concentrations (MICs) were determined by the broth microdilution method in accordance with the National Committee for Clinical Laboratory Standards (NCCLS) guidelines. In brief, organism suspensions were are adjusted to a 0.5 McFarland standard to yield a final inoculum between 3×10^5 and 7×10^5 colony-forming units (CFU)/mL. Drug dilutions and inocula were made in sterile, cation adjusted Mueller-Hinton Broth (Remel). An inoculum volume of 100 μl was added to wells containing 100 μl of broth with 2-fold serial dilutions of drug. All inoculated microdilution trays were incubated in ambient air at 35° C. for 18-24 hours. Following incubation, the lowest concentration of the drug that prevented visible growth was recorded as the MIC. Performance of the assay was monitored by the use of laboratory quality-control strains against tobramycin, that has a defined MIC spectrum, in accordance with NCCLS guidelines.

Proteus mirabilis = experiment: MIC vs enteric organisms: Proteus mirabilis; assay type: cell-based; details: P. mir., MIC key class
Experimental: (§3) Bacterial isolates were cultivated from −70° C. frozen stocks by two consecutive overnight passages at 35° C. in ambient air on 5% blood agar (Remel, Lenexa, Kans.). Clinical isolates tested were from a collection composed of isolates collected during clinical trials and recent clinical isolates obtained from various geographically diverse hospitals in the US. Quality control and primary panel strains were from the American Type Culture Collection (ATCC; Rockville, Md.), with the exception of P. aeruginosa PAO200, a strain with a deletion of the mexABoprM genes that was received from Dr. H. Schweizer.
as §2, with “MIC.” for “MIC. Performance of the assay was monitored by the use of laboratory quality-control strains against tobramycin, that has a defined MIC spectrum, in accordance with NCCLS guidelines.”

Serratia marcescens = experiment: MIC vs enteric organisms: Serratia marcescens; assay type: cell-based; details: S. marc., MIC key class
Experimental: as §3
as §2, with “MIC.” for “MIC. Performance of the assay was monitored by the use of laboratory quality-control strains against tobramycin, that has a defined MIC spectrum, in accordance with NCCLS guidelines.”

Klebsiella pneumoniae = experiment: MIC vs enteric organisms: Klebsiella pneumoniae; assay type: cell-based; details: K. pneu., MIC key class
Experimental: as §3
as §2, with “MIC.” for “MIC. Performance of the assay was monitored by the use of laboratory quality-control strains against tobramycin, that has a defined MIC spectrum, in accordance with NCCLS guidelines.”

[1] = system: Pseudomonas aeruginosa cystic fibrosis isolate 3198; experiment: MIC vs cystic fibrosis isolate of P. aeruginosa 3198 (sensitive to most antibacterials); assay type: cell-based; details: strain 3198, Sensitive, LpxC inhibitors, MIC key class
Experimental: as §3
as §2, with “MIC.” for “MIC. Performance of the assay was monitored by the use of laboratory quality-control strains against tobramycin, that has a defined MIC spectrum, in accordance with NCCLS guidelines.”

Enterobacter cloacae = experiment: MIC vs enteric organisms: Enterobacter cloacae; assay type: cell-based; details: E. clo., MIC key class
Experimental: as §3
as §2, with “MIC.” for “MIC. Performance of the assay was monitored by the use of laboratory quality-control strains against tobramycin, that has a defined MIC spectrum, in accordance with NCCLS guidelines.”

[2] = system: Pseudomonas aeruginosa cystic fibrosis isolate 3317; experiment: MIC vs cystic fibrosis isolate of P. aeruginosa 3317 (resistant to aztreonam); assay type: cell-based; details: strain 3317, Aztr. R, LpxC inhibitors, MIC key class
Experimental: as §3
as §2, with “MIC.” for “MIC. Performance of the assay was monitored by the use of laboratory quality-control strains against tobramycin, that has a defined MIC spectrum, in accordance with NCCLS guidelines.”

P. aeruginosa 27853 = experiment: MIC broth microdilution, standard panel: P. aeruginosa 27853; assay type: cell-based; details: Pseudomonas aeruginosa, standard panel of organisms
Experimental: as §1, §2

[3] = system: Pseudomonas aeruginosa cystic fibrosis isolate 1145; experiment: microbe, parasite or virus in culture; assay type: cell-based
Experimental: as §3
as §2, with “MIC.” for “MIC. Performance of the assay was monitored by the use of laboratory quality-control strains against tobramycin, that has a defined MIC spectrum, in accordance with NCCLS guidelines.”

[4] = system: Pseudomonas aeruginosa cystic fibrosis isolate 3206; experiment: microbe, parasite or virus in culture; assay type: cell-based
Experimental: as §3
as §2, with “MIC.” for “MIC. Performance of the assay was monitored by the use of laboratory quality-control strains against tobramycin, that has a defined MIC spectrum, in accordance with NCCLS guidelines.”

[5] = system: non-CF clinical isolates of P. aeruginosa; experiment: MIC vs non-CF clinical isolates of P. aeruginosa; assay type: cell-based; details: Pseudomonas aeruginosa, MIC key class
Experimental: as §1, §2

Burkholderia cepacia = experiment: MIC vs non-fermenting organisms: Burkholderia cepacia; assay type: cell-based; details: Burkholderia cepacia, B. cepacia; MIC key class; read-out: MIC
Experimental: as §3
as §2, with “MIC.” for “MIC. Performance of the assay was monitored by the use of laboratory quality-control strains against tobramycin, that has a defined MIC spectrum, in accordance with NCCLS guidelines.”

P. aeruginosa LpxC = target: T1, P. aeruginosa LpxC (Pseudomonas aeruginosa, UniProt P47205); experiment: P. aeruginosa LpxC Inhibition Assay; assay type: biochemical
T1 sequence (P47205 1-303): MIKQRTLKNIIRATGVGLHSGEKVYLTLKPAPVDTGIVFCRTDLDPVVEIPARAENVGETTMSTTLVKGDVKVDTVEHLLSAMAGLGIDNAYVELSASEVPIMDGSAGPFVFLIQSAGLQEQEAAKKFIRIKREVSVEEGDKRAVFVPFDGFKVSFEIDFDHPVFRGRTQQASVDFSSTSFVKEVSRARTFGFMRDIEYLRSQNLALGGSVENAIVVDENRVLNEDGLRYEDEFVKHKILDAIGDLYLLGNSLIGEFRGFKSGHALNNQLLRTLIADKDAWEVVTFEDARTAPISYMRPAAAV
Experimental: The assay followed the general method of Hyland et al (Journal of Bacteriology 1997 179, 2029-2037: Cloning, expression and purification of UDP-3-O-acyl-GlcNAc deacetylase from Pseudomonas aeruginosa: a metalloamidase of the lipid A biosynthesis pathway) and the radiolabeling procedure is according to Kline et al. supra. Briefly, samples were incubated with 2 nM P. aeruginosa LpxC and 150 nM [3H-Ac]-UDP-3-OR-3-hydroxydecanoyl)-GlcNAc in a total volume of 50 uL for 90 min at room temperature. Reactions were carried out in 96-well polypropylene plates in 50 mM sodium phosphate buffer, pH 7.5, containing 1 mg/mL BSA. Reactions were stopped by the addition of 180 uL of a 3% suspension of activated charcoal powder in 100 mM sodium acetate, pH 7.5. Supernatants were clarified by centrifugation. A portion of the clarified supernatant, containing the enzymatically released [3H]-acetate, was transferred to opaque white 96-well plates containing scintillation fluid. The radioactivity was measured in a Perkin-Elmer/Wallac Trilux Microbeta counter.

[6] = system: Pseudomonas aeruginosa cystic fibrosis isolate 3224; experiment: MIC vs cystic fibrosis isolate of P. aeruginosa 3224; assay type: cell-based; details: strain 3224, Tobra R, LpxC inhibitors, MIC key class
Experimental: as §3
as §2, with “MIC.” for “MIC. Performance of the assay was monitored by the use of laboratory quality-control strains against tobramycin, that has a defined MIC spectrum, in accordance with NCCLS guidelines.”

[7] = strain 1145, MDR, LpxC inhibitors, MIC key class, read-out: MIC
[8] = strain 3206, MDR, LpxC inhibitors, MIC key class, read-out: MIC

In the case of C[C@@H](O)[C@H](NC(=O)c1ccc(C#Cc2ccccc2)cc1)C(=O)NO [Example 12, N-(1-(N-hydroxycarbamoyl)(1S,2R)-2-hydroxypropyl)[4-(2-phenylethynyl)phenyl]carboxamide], the MIC (E. coli 25922) is reported as < 6.25 mg/L, the MIC (Proteus mirabilis) is reported as < 6.25 mg/L and the MIC (Serratia marcescens) is reported as < 6.25 mg/L. For the same compound, the MIC (Klebsiella pneumoniae) was < 6.25 mg/L, the MIC [1] was < 6.25 mg/L and the MIC (Enterobacter cloacae) was < 6.25 mg/L. For the same compound, the MIC [2] was < 6.25 mg/L, the MIC (P. aeruginosa 27853) was < 6.25 mg/L and the MIC [3] was < 6.25 mg/L. For the same compound, the MIC [4] was < 6.25 mg/L, the MIC ([5]; P. aer 12307) was < 6.25 mg/L and the MIC ([5]; P. aer 27853) was < 6.25 mg/L. For the same compound, the MIC ([5]; P. aer psa-6b) was < 6.25 mg/L, the MIC ([5]; PAO1, P. aer. PAO1) was < 6.25 mg/L and the MIC (Burkholderia cepacia) was 6.25 to 50 mg/L (≈ 18.5 to 148 µM). The IC50 (P. aeruginosa LpxC) was < 100 nM and the MIC [6] was < 6.25 mg/L.

For C[C@@H](N)[C@H](NC(=O)c1ccc(C#Cc2ccccc2)cc1)C(=O)NO [Example 13], the MIC (E. coli 25922) was < 6.25 mg/L, the MIC (Proteus mirabilis) was < 6.25 mg/L and the MIC (Serratia marcescens) was < 6.25 mg/L. The MIC (Klebsiella pneumoniae) was < 6.25 mg/L, the MIC [1] was < 6.25 mg/L and the MIC (Enterobacter cloacae) was < 6.25 mg/L. For the same compound, the MIC [2] was < 6.25 mg/L, the MIC (P. aeruginosa 27853) was < 6.25 mg/L and the MIC [3, 7] was < 6.25 mg/L. The MIC [4, 8] was < 6.25 mg/L, the MIC ([5]; P. aer 27853) was < 6.25 mg/L and the MIC ([5]; P. aer psa-6b) was < 6.25 mg/L. For the same compound, the MIC ([5]; PAO1, P. aer. PAO1) was < 6.25 mg/L, the MIC (Burkholderia cepacia) was < 6.25 mg/L and the IC50 (P. aeruginosa LpxC) was < 100 nM. The MIC [6] was < 6.25 mg/L.

With C[C@@H](O)[C@H](NC(=O)c1ccc(C#CC#Cc2ccccc2)cc1)C(=O)NO [Example 19, N-(1-(N-hydroxycarbamoyl)(1S,2R)-2-hydroxypropyl)[4-(4-phenylbuta-1,3-diynyl)phenyl]carboxamide] the MIC (E. coli 25922) was < 6.25 mg/L, the MIC (Proteus mirabilis) was < 6.25 mg/L and the MIC (Serratia marcescens) was < 6.25 mg/L. The MIC (Klebsiella pneumoniae) was < 6.25 mg/L, the MIC [1] was < 6.25 mg/L and the MIC (Enterobacter cloacae) was < 6.25 mg/L. For the same compound, the MIC [2] was < 6.25 mg/L, the MIC (P. aeruginosa 27853) was < 6.25 mg/L and the MIC [3, 7] was < 6.25 mg/L. For the same compound, the MIC [4, 8] was < 6.25 mg/L, the MIC ([5]; P. aer 12307) was < 6.25 mg/L and the MIC ([5]; P. aer 27853) was < 6.25 mg/L. The MIC ([5]; P. aer psa-6b) was < 6.25 mg/L, the MIC ([5]; PAO1, P. aer. PAO1) was < 6.25 mg/L and the MIC (Burkholderia cepacia) was 6.25 to 50 mg/L (≈ 17.2 to 138 µM). The IC50 (P. aeruginosa LpxC) was < 100 nM and the MIC [6] was < 6.25 mg/L.

For CCc1ccc(-c2ccc(C(=O)N[C@@H](CN)C(=O)NO)cc2)cc1 [Example 280, N-[(1S)-1-(aminomethyl)-2-(hydroxyamino)-2-oxoethyl]-4′-ethyl-1,1-biphenyl-4-carboxamide], the MIC (E. coli 25922) was < 6.25 mg/L, the MIC (Proteus mirabilis) was 6.25 to 50 mg/L (≈ 19.1 to 153 µM) and the MIC (Serratia marcescens) was 6.25 to 50 mg/L (≈ 19.1 to 153 µM). For the same compound, the MIC (Klebsiella pneumoniae) was 6.25 to 50 mg/L (≈ 19.1 to 153 µM), the MIC [1] was < 6.25 mg/L and the MIC (Enterobacter cloacae) was < 6.25 mg/L. For the same compound, the MIC [2] was < 6.25 mg/L, the MIC (P. aeruginosa 27853) was < 6.25 mg/L and the MIC [3, 7] was < 6.25 mg/L. For the same compound, the MIC [4, 8] was < 6.25 mg/L, the MIC ([5]; P. aer 12307) was < 6.25 mg/L and the MIC ([5]; P. aer 27853) was < 6.25 mg/L. The MIC ([5]; P. aer psa-6b) was < 6.25 mg/L, the MIC ([5]; PAO1, P. aer. PAO1) was < 6.25 mg/L and the MIC (Burkholderia cepacia) was 6.25 to 50 mg/L (≈ 19.1 to 153 µM). The IC50 (P. aeruginosa LpxC; 2 nM P. aeruginosa LpxC, 90 min, room temperature, read-out: IC50 (nM), Enzyme inhibitory activity) was < 100 nM and the MIC [6] was < 6.25 mg/L.
